Assay [1] concerns the target T1, Acetylcholinesterase (Homo sapiens, UniProt P22303). The experiment in a line: Inhibition of human recombinant AChE by Lineweaver-Burk plot analysis.
Assay [2] deals with Cholinesterase (Homo sapiens, UniProt P06276). The experiment in a line: Inhibition of human plasmatic BChE by Lineweaver-Burk plot analysis. In kind it is cell-free, Plasma.
For assay [3], the target named is T1, Acetylcholinesterase.
Description: Dissociation constant for enzyme-inhibitor complex of human recombinant AChE by Lineweaver-Burk plot analysis
In assay [4] the target is T1, Acetylcholinesterase. The source holds these as a separate data set.
Description: Dissociation constant for enzyme-inhibitor-substrate complex of human recombinant AChE by Lineweaver-Burk plot analysis

T1 sequence (P22303 whole entry): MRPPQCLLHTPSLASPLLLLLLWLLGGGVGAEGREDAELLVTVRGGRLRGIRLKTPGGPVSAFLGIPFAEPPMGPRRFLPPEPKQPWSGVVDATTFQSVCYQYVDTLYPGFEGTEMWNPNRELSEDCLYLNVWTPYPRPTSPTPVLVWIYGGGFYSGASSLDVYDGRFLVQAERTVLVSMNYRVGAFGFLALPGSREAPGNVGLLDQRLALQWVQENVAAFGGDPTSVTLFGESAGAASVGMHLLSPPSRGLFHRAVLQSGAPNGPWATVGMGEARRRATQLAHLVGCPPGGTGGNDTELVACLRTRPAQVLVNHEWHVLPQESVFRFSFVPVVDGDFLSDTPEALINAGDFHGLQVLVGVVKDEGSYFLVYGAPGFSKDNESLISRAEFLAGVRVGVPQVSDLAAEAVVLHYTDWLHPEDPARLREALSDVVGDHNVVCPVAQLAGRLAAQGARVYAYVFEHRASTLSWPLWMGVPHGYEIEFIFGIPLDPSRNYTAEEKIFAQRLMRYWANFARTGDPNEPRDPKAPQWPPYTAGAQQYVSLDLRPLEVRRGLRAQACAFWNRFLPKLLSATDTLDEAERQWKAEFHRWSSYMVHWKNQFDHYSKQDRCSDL
Chain of Cholinesterase (P06276 whole entry): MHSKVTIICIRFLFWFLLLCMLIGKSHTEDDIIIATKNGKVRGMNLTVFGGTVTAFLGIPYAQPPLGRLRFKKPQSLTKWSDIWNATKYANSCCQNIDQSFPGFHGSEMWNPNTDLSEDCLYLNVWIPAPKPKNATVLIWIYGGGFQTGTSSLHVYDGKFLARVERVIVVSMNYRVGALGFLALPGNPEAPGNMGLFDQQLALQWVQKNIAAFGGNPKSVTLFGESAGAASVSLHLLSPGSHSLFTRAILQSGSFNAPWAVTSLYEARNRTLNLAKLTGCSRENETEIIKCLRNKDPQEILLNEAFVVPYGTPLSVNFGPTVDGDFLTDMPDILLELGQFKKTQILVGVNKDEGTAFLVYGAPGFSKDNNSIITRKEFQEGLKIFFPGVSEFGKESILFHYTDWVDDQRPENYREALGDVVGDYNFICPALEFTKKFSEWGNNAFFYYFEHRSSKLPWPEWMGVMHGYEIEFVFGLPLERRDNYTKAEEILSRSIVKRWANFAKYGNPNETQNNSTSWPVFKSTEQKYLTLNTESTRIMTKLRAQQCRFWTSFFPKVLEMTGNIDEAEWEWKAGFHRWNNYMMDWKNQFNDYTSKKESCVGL

As for `c1ccc2c[n+](CCCCCCCCC[n+]3ccc4ccccc4c3)ccc2c1`, the IC50 (commonly the concentration that inhibits the measured activity by half) is 0.04 µM in assay [1] and 0.6 µM in assay [2].
Take `c1ccc2c[n+](CCCCCCCCCCC[n+]3ccc4ccccc4c3)ccc2c1`: the results for the IC50 in assay [1] and in assay [2] were 0.1 µM and 9 µM, respectively.
Turning to `c1ccc2c[n+](CCCCCCCCCCCC[n+]3ccc4ccccc4c3)ccc2c1`, the figures for the IC50 in assay [1] and in assay [2] were 137 µM and 0.1 µM, respectively.
`c1ccc2c[n+](CCCCCCCCCC[n+]3ccc4ccccc4c3)ccc2c1`: the IC50 was found to be 0.05 µM in assay [1] and 1.6 µM in assay [2].
In the same order, the values of `c1ccc2c[n+](C[n+]3ccc4ccccc4c3)ccc2c1` are 654 µM and 1400 µM.
Take `c1ccc2c[n+](CCC[n+]3ccc4ccccc4c3)ccc2c1`: the IC50 was 446 µM in assay [1] and 2600 µM in assay [2].
Consider `c1ccc2c[n+](CCCC[n+]3ccc4ccccc4c3)ccc2c1`, for which the IC50 in assay [1] is 36 µM; in assay [2], 40 µM.
In the same order, the values of `c1ccc2c[n+](CCCCC[n+]3ccc4ccccc4c3)ccc2c1` are 13 µM and 0.7 µM.
With `c1ccc2c[n+](CCCCCC[n+]3ccc4ccccc4c3)ccc2c1`, the IC50 in assay [1] is 0.3 µM; in assay [2], 2 µM.
With `c1ccc2c[n+](CCCCCCC[n+]3ccc4ccccc4c3)ccc2c1`, the IC50 came out at 0.5 µM in assay [1] and 3 µM in assay [2].
The matching figures for `c1ccc2c[n+](COC[n+]3ccc4ccccc4c3)ccc2c1`: 2 µM and 154 µM.
`c1ccc2c[n+](CCOCC[n+]3ccc4ccccc4c3)ccc2c1`: the IC50 came to 1310 µM in assay [1] and 51 µM in assay [2].
The matching figures for `C(=C\C[n+]1ccc2ccccc2c1)/C[n+]1ccc2ccccc2c1`: 7 µM and 64 µM.
In the same order, the values of `C(=C/C[n+]1ccc2ccccc2c1)/C[n+]1ccc2ccccc2c1` are 17 µM and 25 µM.
Consider `c1ccc(C[n+]2ccc3ccccc3c2)c(C[n+]2ccc3ccccc3c2)c1`, for which the IC50 amounted to 250 µM in assay [1] and 0.6 µM in assay [2].
With `c1cc(C[n+]2ccc3ccccc3c2)cc(C[n+]2ccc3ccccc3c2)c1`, the IC50 in assay [1] came to 8 µM; in assay [2], 1 µM.
The matching figures for `c1ccc2c[n+](Cc3ccc(C[n+]4ccc5ccccc5c4)cc3)ccc2c1`: 12 µM and 840 µM.
Turning to `c1ccc2c[n+](Cc3ccc4ccc(C[n+]5ccc6ccccc6c5)cc4c3)ccc2c1`, the IC50 in assay [1] was found to be 0.3 µM; in assay [2], 4 µM. In addition, the Ki (commonly a measure of affinity in units of concentration, obtained from inhibition or displacement) in assay [3] came out at 1.25 µM; in assay [4], 0.75 µM.
`C[N+](C)(CCNC(=O)C(=O)NCC[N+](C)(C)Cc1ccccc1Cl)Cc1ccccc1Cl` [AMBENONIUM DICHLORIDE]: the IC50 in assay [2] stood at 6.82 µM.
The same measure, in the same setting: the result for `CC[N+](C)(C)c1cccc(O)c1` [EDROPHONIUM CHLORIDE] reads 1370 µM.

Values taken from ChEMBL document CHEMBL1667816, “Preparation and in vitro screening of symmetrical bis-isoquinolinium cholinesterase inhibitors bearing various connecting linkage--implications for early Myasthenia gravis treatment” (Eur J Med Chem, 2011).
